Values quoted from earlier work, collected in US4122157A, “Nitrofurantoin sustained release tablet” (Richardson-Merrell Inc., priority 1977, dated 1978).

Conditions: background statement

O=C1CN(N=Cc2ccc([N+](=O)[O-])o2)C(=O)N1 [Nitrofurantoin, 1-[(5-nitrofurfurylidene)amino]hydantoin]
tolerability in humans: remarkably well tolerated in humans
most frequent adverse reactions (humans): anorexia, nausea and emesis
